Test results reported in US5665765A, “5,6,7,8-tetrahydronaphtho[2,3-b]furan and indano[5,6-b]furan amine compounds” (Adir et Compagnie, priority 1995, dated 1997).

Each compound was assayed against T1, human dopamine D2 receptor (Homo sapiens, UniProt P14416) (assay: binding to human D2 receptors expressed in CHO cells ([125I]-iodosulpride)). Conditions: radioligand dissociation constant used in Ki formula.
T1 construct: expressed in transfected cells; membranes
Method: (§1) STUDY OF THE BINDING OF THE COMPOUNDS OF THE INVENTION TO HUMAN D2 AND D3 RECEPTORS EXPRESSED IN CHO CELLS
CHO (Chinese Hamster Ovary) cells were transfected in a stable manner by the gene coding for the human dopamine D2 or D3 receptor according to methods known from the literature. The native cells are deficient in the enzyme DHFR (DiHydroFolate Reductase). Those cells are cultured in a vessel at 37° C. in a humid atmosphere of 5% CO2 : 95% air. The transfections were carried out using Lipofectine (Gibco). The CHO cells, cotransfected with the human D2 receptor and the gene for resistance to phleomycin, were selected for their resistance to the presence of that antibiotic in the culture medium. The cells transfected with the human D3 receptor were selected in a medium lacking in hypoxanthine/thymidine, in the presence of methotrexate. […]
(§2) The ranges of concentration of each compound include at least 7 points determined in triplicate; each experiment is repeated at least twice.
The incubation, which lasts 30 minutes at 30° C., is terminated by rapid filtration in a Brandle apparatus, followed by three consecutive washes with tris-HCl buffer, pH 7.4, containing 120 m M NaCl. The filters recovered are then counted with a gamma counter. […]

T1 sequence (P14416 whole entry): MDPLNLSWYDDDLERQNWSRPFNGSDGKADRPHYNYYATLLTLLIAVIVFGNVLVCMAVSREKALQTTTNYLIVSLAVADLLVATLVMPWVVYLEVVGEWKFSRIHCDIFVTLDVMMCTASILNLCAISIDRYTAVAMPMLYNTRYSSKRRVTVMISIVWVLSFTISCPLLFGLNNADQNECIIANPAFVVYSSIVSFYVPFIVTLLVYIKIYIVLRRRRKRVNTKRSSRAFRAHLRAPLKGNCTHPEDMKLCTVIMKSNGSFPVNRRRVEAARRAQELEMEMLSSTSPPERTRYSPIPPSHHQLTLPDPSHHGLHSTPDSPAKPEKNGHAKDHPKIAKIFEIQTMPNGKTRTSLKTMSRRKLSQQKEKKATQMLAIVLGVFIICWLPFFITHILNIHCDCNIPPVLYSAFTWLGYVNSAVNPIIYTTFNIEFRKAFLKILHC

Compound | Kd
[^125 I]-iodosulpride | 0.5 nM

These compounds were tested against T2, human dopamine D3 receptor (Homo sapiens, UniProt P35462) (assay: binding to human D3 receptors expressed in CHO cells ([125I]-iodosulpride)). Conditions: not given.
T2 construct: expressed in transfected cells; membranes
Method: as §1
CHO (Chinese Hamster Ovary) cells were transfected in a stable manner by the gene coding for the human dopamine D2 or D3 receptor according to methods known from the literature. The native cells are deficient in the enzyme DHFR (DiHydroFolate Reductase). Those cells are cultured in a vessel at 37° C. in a humid atmosphere of 5% CO2 : 95% air. The transfections were carried out using Lipofectine (Gibco). The CHO cells, cotransfected with the human D2 receptor and the gene for resistance to phleomycin, were selected for their resistance to the presence of that antibiotic in the culture medium. The cells transfected with the human D3 receptor were selected in a medium lacking in hypoxanthine/thymidine, in the presence of methotrexate. The compositions of the culture media used are, for CHO--D2 : DMEM (Dulbecco's Modified Eagle Medium) supplemented with 10% foetal calf serum and hypoxanthine/thymidine and, for CHO--D3 : DMEM supplemented with 10% dialysed foetal calf serum. The confluent cells are harvested and the membranes are then prepared.
After a few minutes in the presence of 0.2% trypsin, the cells are recovered and centrifuged at 2000 g for 5 minutes. The cell mass, resuspended in […] tris-HCl buffer, pH 7.5, containing 5 mM MgSO4, is then […] over Polytron®. The homogenate is then centrifuged at 50 000 g for 15 minutes, and the mass is resuspended by gentle sonication in an incubation buffer of the following composition: 50 mM tris-HCl, pH 7.5, containing 120 mM NaCl, 5 mM KCl, 2 mM CaCl2 and 5 mM MgCl2. The membranes are then divided into aliquots and preserved at -80° C. until the day of the experiment.
The incubation is carried out in polypropylene tubes at a final volume of 400 μl containing:
100 μl of [^125 I]-iodosulpride (Amersham) at 0.1 and 0.2 nM for the D2 and D3 receptors respectively.
100 μl of buffer (total tubes)
100 μl of raclopride 10 μM (non-specific binding)
200 μl of membrane preparation containing the D2 or D3 receptors, in a buffer to which
0.2% BSA (bovine serum albumin) has been added.
as §2
The incubation, which lasts 30 minutes at 30° C., is terminated by rapid filtration in a Brandle apparatus, followed by three consecutive washes with tris-HCl buffer, pH 7.4, containing 120 m M NaCl. The filters recovered are then counted with a gamma counter.
The IC50, which represents the concentration that gives a 50% inhibition of the binding of the radioligand, is calculated by non-linear regression (Prism Graph method). The Ki value is derived from the formula Ki=IC50 (1+L/Kd) where L is the concentration of [^125 I]-iodosulpride used in the experiment and Kd its dissociation constant. The results are expressed in the form of pKi (pKi=-logKi).

T2 sequence (P35462 whole entry): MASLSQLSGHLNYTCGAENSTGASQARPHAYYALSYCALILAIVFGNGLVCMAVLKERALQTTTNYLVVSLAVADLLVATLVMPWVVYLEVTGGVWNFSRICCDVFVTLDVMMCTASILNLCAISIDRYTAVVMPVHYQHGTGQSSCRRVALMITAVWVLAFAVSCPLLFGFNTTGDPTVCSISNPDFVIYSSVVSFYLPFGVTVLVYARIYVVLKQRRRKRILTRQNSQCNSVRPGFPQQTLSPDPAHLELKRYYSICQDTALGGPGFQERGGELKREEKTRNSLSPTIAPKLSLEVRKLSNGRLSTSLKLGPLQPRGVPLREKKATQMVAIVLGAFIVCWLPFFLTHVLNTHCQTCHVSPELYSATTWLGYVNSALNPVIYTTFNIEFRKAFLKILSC

Compound | Ki
CCCN[C@@H]1CCc2c(OC)cccc2[C@@H]1C [AJ 76, [cis(+)-1S,2R]-5-methoxy-1-methyl-2-n-propylaminotetralin] | 69.2 nM

Same assay, conditions: [125I]-iodosulpride 0.2 nM, CHO cell membranes, 30 min at 30° C.; pKi=-logKi; read-out: pKi (human D3) (converted)

Compound | Ki
c1ccc(CNC2CCc3cc4c(cc3C2)OCC4)cc1 (stereo not drawn) | 1170 nM
CCCN(CCCc1ccc(NC(C)=O)cc1)C1CCc2cc3c(cc2C1)OCC3 (racemic) [Example 13] | 3.55 nM
CN(C)C1CCc2cc3c(cc2C1)OCC3 (stereo not drawn) | 209 nM
CN(CC1CCCCC1)C1CCc2cc3c(cc2C1)OCC3 (stereo not drawn) | 151 nM
NC1CCc2cc3c(cc2C1)OCC3 (stereo not drawn) | 158 nM
NC1CCc2cc3ccoc3cc2C1 (stereo not drawn) | 389 nM
CCOCCNC1CCc2cc3c(cc2C1)OCC3 (stereo not drawn) | 759 nM

The next lines start with the values.

Ki | Compound
3.47 nM | CCCN(CCCc1ccc2c(c1)CC(=O)N2)C1CCc2cc3c(cc2C1)OCC3 (racemic) [Example 7, (7RS)-7-{N-[3-((3H)-indol-2-on-5-yl)propyl]-N-propylamino}-5,6,7,8-tetrahydronaphtho[2,3-b]2,3-dihydrofuran]
1.15 nM | CCCN(CCc1ccc2c(c1)CC(=O)N2)C1CCc2cc3c(cc2C1)OCC3 (racemic) [Example 6, (7RS)-7-{N-[2-((3H)-indol-2-on-5-yl)ethyl]-N-propylamino}-5,6,7,8-tetrahydronaphtho[2,3-b]2,3-dihydrofuran]
2.24 nM | CCCN(CCc1ccc(O)cc1)C1CCc2cc3c(cc2C1)OCC3 (racemic) [Example 3, (7RS)-7-{N-[2-(4-hydroxyphenyl)ethyl]-N-propylamino}-5,6,7,8-tetrahydronaphtho[2,3-b]2,3-dihydrofuran]
10000 nM | FC(F)(F)CNC1CCc2cc3c(cc2C1)OCC3 (stereo not drawn)

Same assay, conditions: human D3 vs D2 binding

Compound | selectivity for the D3 receptor compared with the D2 receptor
CCCN[C@@H]1CCc2c(OC)cccc2[C@@H]1C [AJ 76, [cis(+)-1S,2R]-5-methoxy-1-methyl-2-n-propylaminotetralin] | 2

Same assay, conditions: radioligand dissociation constant used in Ki formula

Compound | Kd
[^125 I]-iodosulpride | 1.31 nM
